Here are results for 1 compound from patent US4929751A, “Vinyl tricarbonyl compounds and methods of making the same” (Yale University, priority 1987, dated 1990).

Common to all, as to test: growth inhibition of tumor cell line
Holding throughout (format): cell-based

For one experiment, the system named is A2780 (ovarian). The conditions noted are these: Homo sapiens. The text has this:
(§1) t-Butyl 2,3-dioxo-pent-4-enoate hydrate (A) was contacted with various cell lines as indicated on Table 1 hereinbelow in the column designated as "CELL" or "TUMOR". […]
(§2) Table 1 reports and illustrates the results obtained by testing t-butyl 2,3-dioxo-pent-4-enoate hydrate. The concentration of this compound found to inhibit the growth of each cell line listed under "CELL" by 50% is reported under "LOG(IC50)" as the logarithm of the concentration. The units of concentration are either molarity in which case an "M" is shown in parentheses next to the LOG(IC50) label, or micrograms per ml, in which case a "W" (for weight) is shown in parenthesis. The cell line names are grouped by disease type and the disease type names are listed on the far left.

Experiment [1] concerns H358 (nonsmall cell lung cancer). Conditions: Homo sapiens, NCI-H358.
Description: as §1, §2

Experiment [2] concerns H460 (nonsmall cell lung cancer). Conditions: Homo sapiens, NCI-H460, logarithm of the concentration inhibiting growth by 50%.
Description: as §1, §2

A further experiment concerns K562 (leukemia). Conditions: Homo sapiens.
Description: as §1, §2

The next experiment has as its system P388. The conditions noted are these: Mus musculus.
Description: as §1, §2

Another experiment relates to SK-MEL2 (melanoma). The conditions noted are these: Homo sapiens.
Description: as §1, §2

The test system of experiment [3] is SK-MES-1 (nonsmall cell lung cancer). The conditions noted are these: Homo sapiens, SK-MES1, logarithm of the concentration inhibiting growth by 50%.
Description: as §1, §2

In experiment [4] the test system is SNB-44 (central nervous system).
Description: as §1, §2

A further experiment has as its system SW620 (colon). The conditions noted are these: Homo sapiens.
Description: as §1, §2

Setting [5] is: logarithm of the concentration inhibiting growth by 50%, read-out: LOG(IC50) (converted).

Read-outs that look alike come from different tables or passages of the source.

Regarding `C=CC(=O)C(O)(O)C(=O)OC(C)(C)C` [t-butyl 2,3-dioxo-pent-4-enoate hydrate], the IC90 in the experiment with A2780 (ovarian) was found to be 249 µM; in the experiment on K562 (leukemia), 225 µM; in the experiment with P388, 248 µM; in the experiment with SK-MEL2 (melanoma) (SK-MEL-2) it was 174 µM; in experiment [4] (SNB44), 235 µM; with SW620 (colon) (SW-620), 234 µM. For the same compound, the IC50 in the experiment with A2780 (ovarian) (setting [5]) was 63.1 µM; in the experiment on A2780 (ovarian) (read-out: IC-50 MEAN), 70.3 µM; in [1] (H358, logarithm of the concentration inhibiting growth by 50%, read-out: LOG(IC50) (converted)), 158 µM; in experiment [1] (read-out: IC-50 MEAN) it was 155 µM; in experiment [2], greater than 251 µM; in the experiment with K562 (leukemia) (setting [5]), 100 µM. The IC50 is 90.3 µM with K562 (leukemia) (read-out: IC-50 MEAN); 100 µM in the experiment with P388 (setting [5]); 114 µM with P388 (read-out: IC-50 MEAN); 79.4 µM in the experiment on SK-MEL2 (melanoma) (SK-MEL-2, logarithm of the concentration inhibiting growth by 50%, read-out: LOG(IC50) (converted)); 73.5 µM with SK-MEL2 (melanoma) (SK-MEL-2, read-out: IC-50 MEAN); greater than 25.1 µM in experiment [3]. Also, the IC50 was 100 µM in experiment [4] (SNB44, logarithm of the concentration inhibiting growth by 50%, read-out: LOG(IC50) (converted)); 94 µM in experiment [4] (SNB44, read-out: IC-50 MEAN); 63.1 µM in the experiment on SW620 (colon) (SW-620, logarithm of the concentration inhibiting growth by 50%, read-out: LOG(IC50) (converted)); 58 µM in the experiment with SW620 (colon) (SW-620, read-out: IC-50 MEAN).
